Consider 5 compounds from ChEMBL document CHEMBL1145011 (J Med Chem, 2003).

Bounds are passed on as bounds.

Data set [1] is described as follows: in vivo. The note with it: rat, plasma, iv, 10 umol/kg.
Data set [2] can be described thus: in vivo. Conditions: rat, po, 10 umol/kg.
A short description of data set [3]: in vivo. Conditions: rat, iv, 10 umol/kg.
The nature of data set [4]: in vivo. Conditions: rat.
Data set [5] can be described thus: in vivo. Conditions: rat, po, 10 umol/kg. This is another data set of the same source.
Data set [6] can be described thus: in vivo. Conditions: rat, po, 10 uM/kg.
Data set [7] can be described thus: in vivo. Conditions: rat, plasma, iv, 10 umol/kg. This is another data set of the same source.
A short description of data set [8]: Percent oral bioavailability at dose of 25 umol/kg in monkey. It counts as ADME, organism-based. Conditions: primates, in vivo.
Data set [9] can be described thus: Half life in monkey at intravenous dose of 25 umol/kg. It counts as ADME, organism-based. The note with it: simiiformes, in vivo.
Data set [10] can be described thus: in vivo. The note with it: rat, iv, 10 umol/kg. This is another data set of the same source.
Data set [11] can be described thus: Area under curve at intravenous dose of 25 umol/kg in monkey. Format: ADME. Conditions: simiiformes, in vivo.
A short description of data set [12]: T max value at oral dose of 25 umol/kg in monkey. Conditions: simiiformes, in vivo. It counts as ADME, organism-based.
Data set [13] in a line: Cmax value at oral dose of 25 umol/kg in monkey. It counts as ADME, organism-based. Set-up: dose 25 umol/kg, route oral. Conditions: simiiformes, in vivo.
Data set [14] in a line: Tested for plasma clearance at intravenous dose of 25 umol/kg in monkey. Format: ADME, organism-based.
The nature of data set [15]: Half life in monkey at oral dose of 25 umol/kg. The note with it: simiiformes, in vivo. Format: ADME, organism-based.
Data set [16] can be described thus: Tested for volume distribution at intravenous dose of 25 umol/kg in monkey. It counts as ADME, organism-based. The note with it: simiiformes, in vivo, read-out: Vss.
Data set [17] is described as follows: Area under curve at oral dose of 25 umol/kg in monkey. It counts as ADME. The note with it: simiiformes, in vivo.
Data set [18] can be described thus: in vitro. Conditions: human, Caco-2.

A word on the clearance: it is the rate of elimination divided by the concentration. In general, Tmax refers to the time at which the peak concentration occurs. By half-life is commonly meant how long it takes for the measured level to halve. In general, Cmax refers to the maximum level reached in the sampled fluid or tissue. Usually bioavailability stands for the share of a dose that reaches the circulation, judged against a reference dose that is usually intravenous. Regarding `Cc1onc(NS(=O)(=O)c2ccccc2-c2ccc(-c3ncco3)cc2CN2CCC(C)(C)C2=O)c1C`, the clearance in data set [1] amounted to 9.3 mL/min/kg. In addition, the Tmax in [2] came out at 0.6 h. The compound further displayed a Vd in [3] of 2.3 L/kg. Further, the half-life in data set [4] was 4.7 h. The concentration in data set [5] peaked (Cmax) at 7.7 µM. The compound also yielded a bioavailability in data set [6] of 78%.
Usually AUC stands for concentration integrated over time. As to `Cc1onc(NS(=O)(=O)c2ccccc2-c2ccc(-c3ncco3)cc2N(C)C(=O)CC(C)(C)C)c1C`, the clearance in data set [7] is 5.4 mL/min/kg; in data set [14], 2.7 mL/min/kg. Also, the bioavailability in [8] worked out at 26%; in data set [6], 100%. The Tmax in data set [2] stood at 0.4 h; in data set [12], 1.2 h. The half-life in data set [9] is 14 h; in data set [4], 3.4 h; in [15], 17 h. Also, the Vd in data set [10] was determined as 1.1 L/kg; in data set [16], 0.25 L/kg. Besides, the exposure (AUC) in [11] was found to be 161 µM·h; in [17], 41.5 µM·h. Further, the Cmax in [13] came out at 16.1 µM; in [5], 28 µM.
As usually defined, the Papp is the rate of passage across a membrane or cell layer, normalised by area and donor concentration. Consider `Cc1noc(NS(=O)(=O)c2ccccc2-c2ccc(-c3ncco3)cc2COCC(C)C)c1C`, for which the Papp in data set [18] was under 3 ×10⁻⁶ cm/s.
Same read-out and setting: under `Cc1noc(NS(=O)(=O)c2ccccc2-c2ccc(-c3ncco3)cc2/C=C\c2ccccc2)c1C` stands 8.9 ×10⁻⁶ cm/s.
On the same count and under the same terms, under `Cc1noc(NS(=O)(=O)c2ccccc2-c2ccc(-c3ncco3)cc2Cc2ncco2)c1C` stands 14.8 ×10⁻⁶ cm/s.
